Patent US10563272B2, “Compositions comprising Metarhizium fungi and use thereof as a pesticide” (Cotton Research and Development Corporation, priority 2015, dated 2020)

What was measured:
[1] = tested on: green vegetable bugs (GVB); assay: Rate trial on conventional cotton refuge crops, Undabri 2012 (Example 12): green vegetable bugs; format: in vivo, Nezara viridula; conditions: 14 DAT (P<0.01) and 21 DAT (P<0.05); DAT 511 500 mL/ha and 1 L/ha, fipronil
Protocol: (§1) This trial was conducted using commercial conventional cotton refuge crops at Undabri in Goondiwindi (28° 55'S, 150° 31′E) from 14 Feb. to 6 Mar. 2012.
(§2) The efficacy of the following treatments against green mirids, green vegetable bugs and predatory insects was assessed: • 1. 250 mL/ha DAT 511 spore in oil (1×10^7 spores/ml); • 2. 500 mL/ha DAT 511 spore in oil (1×10^7 spores/ml); • 3. 1 L/ha DAT 511 spore in oil (1×10^7 spores/ml); • 4. 62.5 mL/ha fipronil; and • 5. Unsprayed (negative control).
(§3) The plots were arranged in a randomized complete block design with three replicates per treatment. Each replicated plot measured 8 m (8 rows) wide and 250 m long.
(§4) Foliar applications of each treatment were made on 14 Feb. 2012 using a ground spray rig fitted with flat fan nozzles to achieve a droplet size of 200 μm. All insecticide formulations were water miscible. All treatments were applied using a spray volume of 100 L/ha. The untreated (negative control) plot was left unsprayed and the plot treated with synthetic insecticide received two applications similar to, and on the same date as, the plots treated with the fungus.
(§5) For each replicate, visual counts of adults and nymphs of green mirids, green vegetable bugs (GVB), apple dimpling bugs and predatory insects on whole cotton plants were made in a randomly selected 1 m length of row of cotton plants (i.e. 6 m per treatment). […]

[2] = tested on: green mirid adults and nymphs; assay: Bollgard II cotton, Auscott-Togo 2012-13, Field 77 (Experiment 1): green mirids; format: in vivo, Creontiades dilutus; conditions: 62.5 mL/ha
Protocol: (§6) Two separate trials (Experiment 1 in Field 77; Experiment 2 in Field 63) were conducted in Bollgard II cotton crops on a commercial cotton farm at Auscott-Togo near Narrabri, New South Wales from 11 Feb. to 5 Mar. 2013 (Field 77) and 19 Feb. to 6 Mar. 2013 (Field 63). The cotton used for each of the trials was at the late squaring to pod setting and maturation stages which was fairly attractive to green mirids.
(§7) In both trials, the efficacy of the following treatments against green mirids and predatory insects was evaluated: • 1. 250 mL/ha DAT 511 spore in oil (1×10^7 spores/ml); • 2. 500 mL/ha DAT 511 spore in oil (1×10^7 spores/ml); • 3. 1 L/ha DAT 511 spore in oil (1×10^7 spores/ml); • 4. 62.5 mL/ha of fipronil; and • 5. Unsprayed (negative control).
(§8) The treatment plots were arranged in a randomized complete block design with six replicates per treatment. Each replicated plot measured 40 m wide (40 rows) and 90 m long.
(§9) Foliar application of each treatment was made on 28 Feb. (for both green mirids and beneficial insects) and 13 Mar. 2012 (for beneficial insects alone) using a ground spray rig fitted with flat fan nozzles to achieve a droplet size of 200 μm. The treatment was applied during the mornings when temperatures were between 20° C. and 28° C. The timing of treatment was based on the IPM Guidelines and recommendations by CottonLogic to use an economic threshold of 0.5 green mirids per metre (Deutscher and Wilson 1999; Khan et al. 2004).
(§10) Pre-treatment counts of green mirid adults and nymphs, predatory beetles, predatory bugs, predatory lacewings and spiders were made by visual inspection of whole cotton plants. Both adults and nymphs of beneficial insects were counted. Plants were assessed in randomly selected one-metre lengths of row of each replicate (i.e. 6 m per treatment). Post-treatment counts were made 3, 7, 14 and 21 days after treatment. Data are expressed as numbers of green mirid adults and nymphs counted per metre for each treatment.

apple dimpling bugs = assay: Rate trial on conventional cotton refuge crops, Undabri 2012 (Example 12): apple dimpling bugs; format: in vivo, Campylomma liebknechti
Protocol: as §1, §2, §3, §4, §5

[3] = tested on: green mirid adults and nymphs; assay: Bollgard II cotton, Auscott-Togo 2012-13, Field 63 (Experiment 2): green mirids; format: in vivo, Creontiades dilutus; conditions: 62.5 mL/ha
Protocol: as §6, §7, §8, §9, §10

predatory beetles = assay: Rate trial on conventional cotton refuge crops, Undabri 2012 (Example 12): predatory beetles; format: in vivo, Coleoptera (Coccinellidae, Melyridae); conditions: DAT 511 250 mL/ha, 500 mL/ha and 1.0 L/ha; fipronil 62.5 mL/ha
Protocol: as §1, §2, §3, §4, §5

predatory lacewings = assay: Bollgard II cotton, Auscott-Togo 2012-13, Field 63 (Experiment 2): predatory lacewings; format: in vivo, Chrysopa spp., Micromus tasmaniae; conditions: 62.5 mL/ha
Protocol: as §6, §7, §8, §9, §10

N#Cc1nn(-c2c(Cl)cc(C(F)(F)F)cc2Cl)c(N)c1[S+]([O-])C(F)(F)F (stereo not shown) [fipronil]
green vegetable bugs per metre on unsprayed plots relative to treated plots [1]: significantly higher
No. green mirid adults and nymphs per meter ([2]; 3 DAT): 1.33 ± 0.33 a per meter
No. green mirid adults and nymphs per meter ([2]; 7 DAT): 0.00 ± 0.00 b per meter
No. green mirid adults and nymphs per meter ([2]; 14 DAT): 0.00 ± 0.00 a per meter
No. green mirid adults and nymphs per meter ([2]; 21 DAT): 0.00 ± 0.00 a per meter
No. green mirid adults and nymphs per meter ([2]; pre-spray counts): 4.33 ± 0.67 a per meter
apple dimpling bug adults per metre versus the unsprayed plot (apple dimpling bugs; 3, 7, 14 and 21 DAT, P<0.01): significantly fewer
apple dimpling bug nymphs per metre versus unsprayed plots (apple dimpling bugs; 7 DAT only, P<0.05): significantly lower
No. green mirid adults and nymphs per meter ([3]; 3 DAT): 0.33 ± 0.33 a per meter
No. green mirid adults and nymphs per meter ([3]; 7 DAT): 0.00 ± 0.00 a per meter
No. green mirid adults and nymphs per meter ([3]; 14 DAT): 0.33 ± 0.33 a per meter
No. green mirid adults and nymphs per meter ([3]; 21 DAT): 0.00 ± 0.00 a per meter
No. green mirid adults and nymphs per meter ([3]; pre-spray counts): 1.67 ± 0.33 a per meter
effect on number of predatory beetles per metre (predatory beetles): identical
No. predatory lacewings per meter (predatory lacewings; 3 DAT): 0.00 ± 0.00 a per meter
No. predatory lacewings per meter (predatory lacewings; 7 DAT): 0.00 ± 0.00 a per meter
No. predatory lacewings per meter (predatory lacewings; 14 DAT): 0.00 ± 0.00 a per meter
No. predatory lacewings per meter (predatory lacewings; 21 DAT): 0.00 ± 0.00 a per meter
No. predatory lacewings per meter (predatory lacewings; pre-spray counts): 0.67 ± 0.33 a per meter
